Source: article PMC9848257, “Design and synthesis of novel rigid dibenzo[b,f]azepines through ring closure technique as promising anticancer candidates against leukaemia and acting as selective topoisomerase II inhibitors and DNA intercalators” (Journal of Enzyme Inhibition and Medicinal Chemistry, 2023)

Tests used:
Assay type in all cases: cell-based
NCI-H460 = test: NCI-60 one-dose screen, NCI-H460; settings: Homo sapiens; NCI-H460, non-small cell lung cancer; single dose 10 μM; read-out: Growth inhibition %
Protocol: (§1) Anti-proliferative effects of the counterparts 4a–g and 5a–g were screened against 60 human cancer cell lines, following the Developmental Therapeutics Program protocol, National Cancer Institute[35].
(§2) The anti-tumour activity of the fourteen synthesised congeners was investigated at the NCI against a panel of 60 cancer cell lines (NCI-60 Cell One-Dose Screen). The tested dibenzo[b,f]azepine derivatives were screened at a single dose level (10 μM), Table 1.

CAKI-1 = test: NCI-60 one-dose screen, CAKI-1; settings: Homo sapiens; CAKI-1, renal cancer; single dose 10 μM; read-out: Growth inhibition %
Protocol: as §1, §2

DU-145 = test: NCI-60 one-dose screen, DU-145; settings: Homo sapiens; DU-145, prostate cancer; single dose 10 μM; read-out: Growth inhibition %
Protocol: as §1, §2

HOP-92 = test: NCI-60 one-dose screen, HOP-92; settings: Homo sapiens; HOP-92, non-small cell lung cancer; single dose 10 μM; read-out: Growth inhibition %
Protocol: as §1, §2

SF-268 = test: NCI-60 one-dose screen, SF-268; settings: Homo sapiens; SF-268, CNS cancer; single dose 10 μM; read-out: Growth inhibition %
Protocol: as §1, §2

OVCAR-4 = test: NCI-60 one-dose screen, OVCAR-4; settings: Homo sapiens; OVCAR-4, ovarian cancer; single dose 10 μM; read-out: Growth inhibition %
Protocol: as §1, §2

SNB-19 = test: NCI-60 one-dose screen, SNB-19; settings: Homo sapiens; SNB-19, CNS cancer; single dose 10 μM; read-out: Growth inhibition %
Protocol: as §1, §2

HCC-2998 = test: NCI-60 one-dose screen, HCC-2998; settings: Homo sapiens; HCC-2998, colon cancer; single dose 10 μM; read-out: Growth inhibition %
Protocol: as §1, §2

HCT-15 = test: NCI-60 one-dose screen, HCT-15; settings: Homo sapiens; HCT-15, colon cancer; single dose 10 μM; read-out: Growth inhibition %
Protocol: as §1, §2

HL-60(TB) = test: NCI-60 one-dose screen, HL-60(TB); settings: Homo sapiens, leukaemia, single dose 10 μM, read-out: Growth inhibition %
Protocol: as §1, §2

ACHN = test: NCI-60 one-dose screen, ACHN; settings: Homo sapiens, renal cancer, single dose 10 μM, read-out: Growth inhibition %
Protocol: as §1, §2

UACC-257 = test: NCI-60 one-dose screen, UACC-257; settings: Homo sapiens; UACC-257, melanoma; single dose 10 μM; read-out: Growth inhibition %
Protocol: as §1, §2

SR = test: NCI-60 one-dose screen, SR; settings: Homo sapiens, leukaemia, single dose 10 μM, read-out: Growth inhibition %
Protocol: as §1, §2

HOP-62 = test: NCI-60 one-dose screen, HOP-62; settings: Homo sapiens; HOP-62, non-small cell lung cancer; single dose 10 μM; read-out: Growth inhibition %
Protocol: as §1, §2

CCRF-CEM = test: NCI-60 one-dose screen, CCRF-CEM; settings: Homo sapiens, leukaemia, single dose 10 μM, read-out: Growth inhibition %
Protocol: as §1, §2

T-47D = test: NCI-60 one-dose screen, T-47D; settings: Homo sapiens, T47D, breast cancer, single dose 10 μM, read-out: Growth inhibition %
Protocol: as §1, §2

MDA-MB-435 = test: NCI-60 one-dose screen, MDA-MB-435; settings: Homo sapiens; MDA-MB-435, melanoma; single dose 10 μM; read-out: Growth inhibition %
Protocol: as §1, §2

U251 = test: NCI-60 one-dose screen, U251; settings: Homo sapiens, U-251; U251, CNS cancer; single dose 10 μM; read-out: Growth inhibition %
Protocol: as §1, §2

KM12 = test: NCI-60 one-dose screen, KM12; settings: Homo sapiens; KM12, colon cancer; single dose 10 μM; read-out: Growth inhibition %
Protocol: as §1, §2

MALME-3M = test: NCI-60 one-dose screen, MALME-3M; settings: Homo sapiens, melanoma, single dose 10 μM, read-out: Growth inhibition %
Protocol: as §1, §2

COLO 205 = test: NCI-60 one-dose screen, COLO 205; settings: Homo sapiens; COLO 205, colon cancer; single dose 10 μM; read-out: Growth inhibition %
Protocol: as §1, §2

LOX IMVI = test: NCI-60 one-dose screen, LOX IMVI; settings: Homo sapiens, melanoma, single dose 10 μM, read-out: Growth inhibition %
Protocol: as §1, §2

RPMI-8226 = test: NCI-60 one-dose screen, RPMI-8226; settings: Homo sapiens; RPMI-8226, leukaemia; single dose 10 μM; read-out: Growth inhibition %
Protocol: as §1, §2

NCI-H23 = test: NCI-60 one-dose screen, NCI-H23; settings: Homo sapiens; NCI-H23, non-small cell lung cancer; single dose 10 μM; read-out: Growth inhibition %
Protocol: as §1, §2

EKVX = test: NCI-60 one-dose screen, EKVX; settings: Homo sapiens, non-small cell lung cancer, single dose 10 μM, read-out: Growth inhibition %
Protocol: as §1, §2

A498 = test: NCI-60 one-dose screen, A498; settings: Homo sapiens; A498, renal cancer; single dose 10 μM; read-out: Growth inhibition %
Protocol: as §1, §2

HT29 = test: NCI-60 one-dose screen, HT29; settings: Homo sapiens, HT-29; HT29, colon cancer; single dose 10 μM; read-out: Growth inhibition %
Protocol: as §1, §2

HS 578 T = test: NCI-60 one-dose screen, HS 578 T; settings: Homo sapiens, breast cancer, single dose 10 μM, read-out: Growth inhibition %
Protocol: as §1, §2

UACC-62 = test: NCI-60 one-dose screen, UACC-62; settings: Homo sapiens; UACC-62, melanoma; single dose 10 μM; read-out: Growth inhibition %
Protocol: as §1, §2

SN12C = test: NCI-60 one-dose screen, SN12C; settings: Homo sapiens, renal cancer, single dose 10 μM, read-out: Growth inhibition %
Protocol: as §1, §2

OVCAR-8 = test: NCI-60 one-dose screen, OVCAR-8; settings: Homo sapiens; OVCAR-8, ovarian cancer; single dose 10 μM; read-out: Growth inhibition %
Protocol: as §1, §2

SK-MEL-5 = test: NCI-60 one-dose screen, SK-MEL-5; settings: Homo sapiens; SK-MEL-5, melanoma; single dose 10 μM; read-out: Growth inhibition %
Protocol: as §1, §2

A549-ATCC = test: NCI-60 one-dose screen, A549-ATCC; settings: Homo sapiens, non-small cell lung cancer, single dose 10 μM, read-out: Growth inhibition %
Protocol: as §1, §2

OVCAR-3 = test: NCI-60 one-dose screen, OVCAR-3; settings: Homo sapiens; OVCAR-3, ovarian cancer; single dose 10 μM; read-out: Growth inhibition %
Protocol: as §1, §2

NCI-H522 = test: NCI-60 one-dose screen, NCI-H522; settings: Homo sapiens; NCI-H522, non-small cell lung cancer; single dose 10 μM; read-out: Growth inhibition %
Protocol: as §1, §2

| SMILES | inhibition at 10 µM (NCI-H460) [%] | inhibition at 10 µM (CAKI-1) [%] | inhibition at 10 µM (DU-145) [%] | inhibition at 10 µM (HOP-92) [%] | inhibition at 10 µM (SF-268) [%] | inhibition at 10 µM (OVCAR-4) [%] | inhibition at 10 µM (SNB-19) [%] | inhibition at 10 µM (HCC-2998) [%] | inhibition at 10 µM (HCT-15) [%] | inhibition at 10 µM (HL-60(TB)) [%] | inhibition at 10 µM (ACHN) [%] | inhibition at 10 µM (UACC-257) [%] | inhibition at 10 µM (SR) [%] | inhibition at 10 µM (HOP-62) [%] | inhibition at 10 µM (CCRF-CEM) [%] | inhibition at 10 µM (T-47D) [%] | inhibition at 10 µM (MDA-MB-435) [%] | inhibition at 10 µM (KM12) [%] | inhibition at 10 µM (MALME-3M) [%] | inhibition at 10 µM (COLO 205) [%] | also measured |
| --- | --- | --- | --- | --- | --- | --- | --- | --- | --- | --- | --- | --- | --- | --- | --- | --- | --- | --- | --- | --- | --- |
| O=C(NNC(=O)N1c2ccccc2C=Cc2ccccc21)c1ccccc1 [Compound 4a, N′-Benzoyl-5H-dibenzo[b,f]azepine-5-carbohydrazide] | < 10 | < 10 | < 10 | < 10 | < 10 | < 10 | < 10 | < 10 | < 10 | < 10 | < 10 | < 10 | < 10 | < 10 | < 10 | < 10 | < 10 | < 10 | < 10 | < 10 | inhibition at 10 µM (U251): < 10%; inhibition at 10 µM (LOX IMVI): < 10%; inhibition at 10 µM (RPMI-8226): < 10%; inhibition at 10 µM (NCI-H23): < 10%; inhibition at 10 µM (EKVX): < 10%; inhibition at 10 µM (A498): < 10%; inhibition at 10 µM (HT29): < 10%; inhibition at 10 µM (HS 578 T): < 10%; inhibition at 10 µM (UACC-62): < 10%; inhibition at 10 µM (SN12C): < 10%; inhibition at 10 µM (OVCAR-8): < 10%; inhibition at 10 µM (SK-MEL-5): < 10%; inhibition at 10 µM (A549-ATCC): < 10%; inhibition at 10 µM (OVCAR-3): < 10%; inhibition at 10 µM (NCI-H522): < 10% |
| O=C(NNC(=O)N1c2ccccc2C=Cc2ccccc21)c1ccc(Br)cc1 [Compound 4b, N′-(4-Bromobenzoyl)-5H-dibenzo[b,f]azepine-5-carbohydrazide] | < 10 | < 10 | 19.7 | < 10 | 15.1 | < 10 | < 10 | < 10 | < 10 | < 10 | 14 | 14.4 | < 10 | < 10 | < 10 | < 10 | < 10 | < 10 | < 10 | < 10 | inhibition at 10 µM (U251): < 10%; inhibition at 10 µM (LOX IMVI): < 10%; inhibition at 10 µM (RPMI-8226): < 10%; inhibition at 10 µM (NCI-H23): < 10%; inhibition at 10 µM (EKVX): < 10%; inhibition at 10 µM (A498): < 10%; inhibition at 10 µM (HT29): < 10%; inhibition at 10 µM (HS 578 T): < 10%; inhibition at 10 µM (UACC-62): < 10%; inhibition at 10 µM (SN12C): < 10%; inhibition at 10 µM (OVCAR-8): < 10%; inhibition at 10 µM (SK-MEL-5): < 10%; inhibition at 10 µM (A549-ATCC): 18.5%; inhibition at 10 µM (OVCAR-3): < 10%; inhibition at 10 µM (NCI-H522): < 10% |
| O=[N+]([O-])c1ccc(-c2nnc(N3c4ccccc4C=Cc4ccccc43)o2)cc1 [Compound 5e, 2-(5 h-Dibenzo[b,f]azepin-5-yl)-5–(4-nitrophenyl)-1,3,4-oxadiazole] | 1.84 | 29.7 | < 10 | 22.8 | 16.1 | 21.8 | < 10 | < 10 | 30.7 | 30.1 | < 10 | < 10 | 30.1 | < 10 | < 10 | 18.4 | < 10 | < 10 | < 10 | < 10 | inhibition at 10 µM (LOX IMVI): < 10%; inhibition at 10 µM (RPMI-8226): < 10%; inhibition at 10 µM (NCI-H23): < 10%; inhibition at 10 µM (EKVX): < 10%; inhibition at 10 µM (A498): 14.8%; inhibition at 10 µM (HT29): < 10%; inhibition at 10 µM (HS 578 T): < 10%; inhibition at 10 µM (UACC-62): 30%; inhibition at 10 µM (SN12C): < 10%; inhibition at 10 µM (OVCAR-8): 1.15%; inhibition at 10 µM (SK-MEL-5): 13.7%; inhibition at 10 µM (A549-ATCC): 16.5%; inhibition at 10 µM (OVCAR-3): < 10%; inhibition at 10 µM (NCI-H522): 15% |
